Patent publication US20070148666A1, “Diagnosis and Treatment of Brain Cancer” (priority 2005, published 2007)

What was measured:
Format in all cases: cell-based, human
D283 cells [1] = assay: FACS analysis of TUNEL-stained D283 cells (apoptosis); conditions: 12 hours, TUNEL FACS (DMSO 13%)
Protocol: FIGS. 11A-11C. Effects of TSA on D283 cells. (FIG. 11A) Dose response curves of cell viability for D283 medulloblastoma cells treated with increasing doses of the HDAC inhibitor TSA. (FIG. 11B) FACs analysis of TUNEL-stained (BD Biosciences) D283 cells treated with TSA for 12 hours. FACs dot plots of cells with DMSO (i), and cells treated with 0.02 μM and 0.2 μM TSA (ii and iii).

Dkk 1 = assay: Expression microarray, TSA fold increase of Dkk1; conditions: D283 medulloblastoma cells
Source text: (§1) RNA from vehicle and TSA treated D283 cells was reverse-transcribed and hybridized to the ABI 1700 Human Genome Expression Microarray containing 33,202 gene-specific 60-mer oligonucleotide probes. Data was quantile normalized and t-test was applied to each gene for statistical significance. Differential gene expression was quantified using the Storey q-value method and data visualized using Spotfire software.
(§2) The inventors performed studies that determined that antagonists of Wnt signalling are epigenetically silenced in medulloblastoma.
(§3) The D283 cell line was cultured with either 0.2 μM TSA or DMSO for 9 hours to generate gene expression profiles in response to TSA. Total RNA was extracted from treated cells using Trizol (Invitrogen, Carlsbad, Calif.). RNA was further purified using the RNeasy kit (QIAGEN, Valencia, Calif.) per manufacturer's protocol and purity of RNA was determined by the Agilent Bioanalyzer. 2 μg of total RNA was reverse-transcribed with the Chemiluminescent RT-IVT Labeling Kit (Applied Biosystems, Foster City, Calif.) and hybridized to a 60-mer whole genome oligonucleotide microarray (Applied Biosystems, Foster City, Calif.) containing 33,202 probes representing 29,098 genes per manufacturer's protocol. […] Differential gene expression was quantified using Storey q-value method (Storey and Tibshirani, 2003, Proc Natl Acad Sci USA 100, 9440-9445). […]

sFRP 1 = assay: Expression microarray, TSA fold increase of sFRP1; conditions: D283 medulloblastoma cells
Source text: as §1, §2, §3

p21 = assay: qPCR of p21 mRNA after TSA; conditions: TSA 0.2 μM, D283, Daoy and MB 100 primary cells, n=3
Protocol: (§4) RNA was isolated from cells and tissues with Triazol (Invitrogen, Carlsbad, Calif.). Real-time PCR was performed on the ABI PRISM 7900 HT detection system using Taq man reagents (Applied Biosystems, Foster City, Calif.) per the manufacturer's recommendations. Gene expression was determined with Assay on Demand gene expression reagents (Applied Biosystems, Foster City, Calif.). All assays were done in triplicate.

RASSF1 = assay: qPCR of RASSF1 mRNA after TSA; conditions: TSA 0.2 μM, D283, Daoy and MB 100 primary cells, n=3
Protocol: as §4

[2] = test system: D283 medulloblastoma cells; assay: Cell viability of D283 cells treated with TSA (MTT assay, washout experiments)
Protocol: The inventors tested cell viability of D283 medulloblastoma cells treated with increasing doses of the HDAC inhibitor TSA (FIG. 1A). They also tested cell viability was measured by an MTT assay.
The inventors also determined the minimum time of TSA exposure needed to induce cell death (FIG. 1B). D283 cells were exposed to TSA for various time points and the media replaced for an additional 24 h prior to assaying for cell viability.
To identify genes regulated by changes in histone H3 K9 acetylation status, the inventors first determined the optimal dose and timing for treating D283 medulloblastoma cells with TSA. The D283 cell line was chosen since it is widely used as a cell model of medulloblastoma and is well characterized. […] For microarray studies, the inventors treated D283 cells with 0.2 μM TSA for 9 hours. […] To confirm the microarray analysis, real-time quantitative PCR (qPCR) was performed on nine randomly selected genes (FIG. 12A).

WIF 1 = assay: Expression microarray, TSA fold increase of WIF1; conditions: D283 medulloblastoma cells
Source text: as §1, §2, §3

DKK1 = assay: qPCR of DKK1 expression after TSA
Protocol: The inventors identified genes by means of the microarray analysis. The results were verified by real time PCR (ABI) in D283 cells using Assay on demand gene expression reagents (ABI) for selected genes. Human Gus was used as the normalizer gene. Real-time PCR was performed on ABI PRISM 7900 HT detection system. Validated genes were assayed in normal brain and medulloblastoma patient samples.
as §4

histone acetylation = assay: Western blot analysis of histone acetylation; conditions: D283 cells, 9 hours of TSA exposure
D283 cells [3] = assay: Whole genome expression microarray of TSA treated D283 cells; conditions: 0.2 μM TSA, 9 hours, q<0.001
Protocol: as §1
as §3, with “protocol. A total of three microarray hybridizations, one for each biological replicate, were performed per treatment.” for “protocol.”

D283 cells [4] = assay: Colony formation assay on soft agar; conditions: transfected D283 cells, after 3 weeks, p<0.001
Protocol: Wnt inhibitors were cloned into pcDNA3.1, D283 cells transfected and plated on agar. Colonies selected in G418. Total number of colonies formed on agar was counted for three separate experiments (FIG. 8).
Colony formation assays were performed on soft agar. Cells were plated at 1.5×10^5 per well using 6-well plates and transfected with pcDNA3.1D/V5-His-TOPO/DKK1, pcDNA3.1D/N5-His-TOPO/lacZ or pcDNA3.1D/V5-His-TOPO with no insert (mock control) using Trans It-Neural transfection reagents (Mirus). The cells were selected in G418 (1 mg/ml) supplemented media at 24 hr post transfection. The cells were simultaneously harvested to confirm their expression at the mRNA level by real-time PCR. G418 resistant cells were maintained for two weeks in culture. Cells were re-suspended in media containing 0.3% agarose and were overlaid on 0.6% agarose. 0.5 ml media was added to the plates every four days and colony formation was quantified after fixation and staining with methylene blue after 3 weeks.

Molecule | apoptotic cells (D283 cells [1]; 0.02 μM TSA) | apoptotic cells (D283 cells [1]; 0.2 μM TSA) | TSA fold increase of Dkk1 (Dkk 1) | TSA fold increase of sFRP1 (sFRP 1) | p21 mRNA (p21) | RASSF1 mRNA (RASSF1) | cell viability ([2]; 0.1 μM TSA, 24 h, MTT assay) | cells committed to cell death by 24 hours ([2]; 0.2 μM TSA for 9 hours, washout) | cell viability ([2]; 0.2 μM TSA, 9 hours) | cell viability ([2]; 0.2 μm TSA, 24 h, MTT assay) | surviving cells ([2]; TSA exposure between 6 and 9 h, media replaced for additional 24 h) | TSA fold increase of WIF1 (WIF 1) | DKK1 expression (DKK1; D283 cells, TSA 0.2 μm, qPCR) | DKK1 expression (DKK1; MB47, MB100, MB187 primary cells and D283, RT-PCR) | histone acetylation (histone acetylation) | number of genes induced at least 2-fold (D283 cells [3]) | fewer neo-resistant colonies than controls (D283 cells [4])
CC(/C=C/C(=O)NO)=C\[C@@H](C)C(=O)c1ccc(N(C)C)cc1 [TSA, Trichostatin A] | 31% | 79% | 1.4 fold | 2.9 fold | induction | induction | 50% | 85% | 100% | 30% | 80% | 2.5 fold | potently induces DKK1 expression | increased on TSA treatment | robust histone acetylation | 714 | 
DKK1 |  |  |  |  |  |  |  |  |  |  |  |  |  |  |  |  | 60%
